For series [1], the system named is Cercopithecus aethiops kidney epithelium-derived cell line Vero. In words: Animal cell lines, 3D culture, ATP assay (Experimental Example 15). The format is cell-based. Particulars: 4 days. The source says: (§1) Various animal cell lines were precultured (single layer culture) as follows in respective media. Chinese hamster ovary-derived cell line CHO-K1 (manufactured by DS PHARMA BIO MEDICAL, 10% fetal bovine serum (FBS, manufactured by Corning)-containing Ham's F-12 medium (manufactured by Fujifilm Wako Pure Chemical Corporation)), Cercopithecus aethiops kidney epithelium-derived cell line Vero (purchased from JCRB cell bank, 5% FBS-containing Medium 199 medium (manufactured by Life Technologies)). The above-mentioned cells in the logarithmic growth phase were washed with PBS, a 0.25 w/v % trypsin-1 mmol/L EDTA (ethylenediaminetetraacetic acid) solution (manufactured by Fujifilm Wako Pure Chemical Corporation) was added, and adherent cells were detached by incubating at 37° C. for 3 min. Each medium was added and the mixture was centrifuged and resuspended in the same medium.
(§2) The aforementioned various animal cells were suspended in respective deacylated gellan gum-containing or not containing media (deacylated gellan gum concentration was 0.02 w/v % in Ham's F-12 medium, 0.015 w/v % in Medium 199 medium), and seeded in a 96 well low attachment U-bottom plate (manufactured by Corning, #4520, deacylated gellan gum-free medium), or a low attachment flat bottom plate (manufactured by Corning, #3474, deacylated gellan gum-containing medium) at a cell concentration of 700-2000 cells/90 μL/well (all 3D culture). […] The amount of each compound solution to be added was […]. As a control, a DMSO solution dissolved in a medium was added (DMSO final concentration 0.1%). […] When compared with the compound non-addition (control), one showing a value of not more than 119% as -, one showing a value of not less than 120% as ◯, and one showing a value of not less than 150% as ⊚ are shown in the twenty-third table and the twenty-fourth table.

The subject of series [2] is Chinese hamster ovary-derived cell line CHO-K1. The description is as above. The format is cell-based. Particulars: CHO-K1, 4 days; for viability at 5 µM / viability at 10 µM: Cricetulus griseus, CHO-K1, 96 h, read-out: number of viable cells (RLU), relative value to control (100%).
Description: as §1, §2

The test system of a further series is hiPS cell line 253G1. As to the kind of experiment: Human pluripotent stem cell (hiPS cell), EZSPHERE plate, ATP assay (Experimental Example 13). The format is cell-based. The settings on record: for relative value (%): hiPS 253G1, EZSPHERE plate, 5 μM, 3 days, RLU of DMSO addition = 100%; for proliferation activity (in words): human pluripotent stem cells under three-dimensional conditions. Here is the method: hiPS cell line 253G1 (purchased from RIKEN) was cultured on a dish coated with vitronectin VTN-N (manufactured by Thermo Fisher Scientific) using mTeSR1 (registered trade mark) medium (manufactured by STEMCELL Technologies). The above-mentioned cells in the proliferation phase were washed with PBS (manufactured by Fujifilm Corporation Wako Pure Chemical Industries, Ltd.), TrypLE Select (registered trade mark) (manufactured by Thermo Fisher Scientific) was added and the mixture was incubated at 37° C. for 3 min to remove the detaching solution. The medium was added and the cells were detached by pipetting. Thereafter, the supernatant was removed by centrifugation.
The aforementioned cells were suspended in a medium containing 10 μM Y-27632 (manufactured by Fujifilm Corporation Wako Pure Chemical Industries, Ltd.) and seeded in a 96-well EZSPHERE plate (manufactured by AGC TECHNO GLASS CO., LTD., #4860-900) at a cell concentration of 10000 cells/200 μL/well. […] The amount of each compound solution to be added was 2 μL/well. As a control, a DMSO solution dissolved in a medium was added (DMSO final concentration 0.05%). The medium was exchanged by half the volume every day, and each compound solution was also added to make the compound concentration constant.

In series [3] the test system is human ovarian cancer cell line SKOV3. In words: Action on SKOV3 cell-2: 3D (deacylated gellan gum) and 2D culture, EGF medium, ATP assay (Experimental Example 3). The settings on record: for viability at 1 µM / viability at 5 µM / viability at 10 µM / viability at 20 µM: Homo sapiens, SK-OV-3, 96 h, 4 days, compound non-addition = 100%.
For series [4], the system named is Human umbilical vein endothelial cells. As to the kind of experiment: Vascular endothelial cell, 3D culture, ATP assay (Experimental Example 14). The format is cell-based. The settings on record: for proliferation activity (in words): human umbilical vein endothelial cells under three-dimensional conditions; for viability at 5 µM / viability at 10 µM: Homo sapiens, HUVEC, 96 h, 4 days, no-addition = 100%, read-out: relative value of RLU (number of viable cells). Here is the method: Human umbilical vein endothelial cells (manufactured by PromoCell) were precultured in Endothelial Cell proliferation Medium (manufactured by PromoCell) medium (single layer culture). The above-mentioned cells in the logarithmic growth phase were washed with PBS, DetachKit (manufactured by PromoCell) was added, and adherent cells were detached by incubating at 37° C. for 3 min. The medium was added and the mixture was centrifuged and resuspended in the same medium.
The aforementioned cells were suspended in respective deacylated gellan gum-containing or not containing media (deacylated gellan gum concentration was 0.015 w/v %), and seeded in a 96 well low attachment U-bottom plate (manufactured by Corning, #4520, deacylated gellan gum-free medium), or a low attachment flat bottom plate (manufactured by Corning, #3474, deacylated gellan gum-containing medium) at a cell concentration of 700-2000 cells/90 μL/well (all 3D culture). […] The amount of each compound solution to be added was 10 μL/well. As a control, a DMSO solution dissolved in a medium was added (DMSO final concentration 0.1%).

Where [5] appears, read: low attachment U-bottom plate, 5 μM.
Setting [6] is: low attachment U-bottom plate, 10 μM.
[7] abbreviates: low attachment flat bottom plate (deacylated gellan gum-containing medium), 5 μM.
Where [8] appears, read: low attachment flat bottom plate (deacylated gellan gum-containing medium), 10 μM.
[9] abbreviates: low attachment flat bottom plate (deacylated gellan gum-containing medium).
Setting [10] is: read-out: relative value of RLU (number of viable cells), 2D single layer culture.
Where [11] appears, read: read-out: relative value of RLU (number of viable cells), 3D culture (deacylated gellan gum).
Setting [12] is: single layer culture (2D) of SKOV3 cells.
[13] abbreviates: three-dimensional culture (3D) of SKOV3 cells.

Like-named read-outs stand apart in the source and are kept apart here. A value given as a limit tells only on which side of the number the result lay.

For the molecule `CC/C(=N\NC(=O)C(C)Nc1ccccc1)c1ccc(O)c(C)c1O` (stereo not shown) [k-1:B-1], the “number of viable cells (RLU), relative value to control (100%)” value (“number … relative value to control (100%)” below) in series [1] (setting [5]), in series [1] (setting [6]), in series [1] (setting [7]) and in series [1] (setting [8]) was “⊙” in each case. The viability at 5 µM in series [2] (setting [5]) was below 119%; in series [2] (setting [7]), 120 to 150%; in series [3] (setting [10]), 99%; in series [3] (setting [11]) it was 181%. In addition, the viability at 10 µM in series [2] (low attachment U-bottom plate) is below 119%; in series [2] (setting [9]), below 119%; in series [3] (setting [10]), 97%; in series [3] (setting [11]) it was 177%. Besides, the “relative value (%)” value in the series with hiPS cell line 253G1 was 193%. Also, the “proliferation activity (in words)” value in the series with hiPS cell line 253G1 is “promoted proliferation activity in human pluripotent stem cells”; in series [4], “promoted proliferation activity in human umbilical vein endothelial cells”. Besides, the results for the viability at 1 µM in series [3] (setting [10]) and in series [3] (setting [11]) were 95% and 127%, respectively. For the same molecule, the figures for the viability at 20 µM in series [3] (setting [10]) and in series [3] (setting [11]) were 74% and 158%, respectively. For the same molecule, the figures for the “cell proliferation promoting effect (in words)” value in series [3] (setting [12]) and in series [3] (setting [13]) were “a favorable cell proliferation promoting effect was not observed” and “exhibited cell proliferation promoting effect at a wide concentration range”, respectively.

In the case of `CCC(=NNC(=O)C(CC)Nc1ccccc1)c1ccc(O)c(C)c1O` (stereo not shown) [k-1:H-7], the “number … relative value to control (100%)” value in series [1] (setting [5]) is reported as “⊙”; in series [1] (setting [6]) it was “⊙”; in series [1] (setting [7]), “⊙”; in series [1] (setting [8]) it was “⊙”; in series [2] (setting [7]) it was “◯ (one showing a value of not less than 120% as ◯)”. Moreover, the “relative value (%)” value with hiPS cell line 253G1 is 194%. The “proliferation activity (in words)” value is listed as “promoted proliferation activity in human pluripotent stem cells” in the series with hiPS cell line 253G1 and “promoted proliferation activity in human umbilical vein endothelial cells” in series [4].

As to `CC/C(=N\NC(=O)NCc1ccccc1)c1ccc(O)c(C)c1O` [k-1:I-1], the viability at 5 µM in series [1] (Chlorocebus sabaeus, 96 h, low attachment U-bottom plate, 5 μM, read-out: number of viable cells (RLU), relative value to control (100%)) is above 120%; in series [1] (Chlorocebus sabaeus, 96 h, low attachment flat bottom plate (deacylated gellan gum-containing medium), 5 μM, read-out: number of viable cells (RLU), relative value to control (100%)), below 119%; in series [2] (setting [5]), below 119%; in series [2] (setting [7]), below 119%; in series [3] (setting [10]), 98%; in series [3] (setting [11]), 111%. The values for the viability at 5 µM in series [4] (low attachment U-bottom plate) and in series [4] (setting [9]) were 327% and 209%, respectively. The viability at 10 µM in series [1] (Chlorocebus sabaeus, 96 h, low attachment flat bottom plate (deacylated gellan gum-containing medium), 10 μM, read-out: number of viable cells (RLU), relative value to control (100%)) was below 119%; in series [2] (low attachment U-bottom plate), below 119%; in series [2] (setting [9]), below 119%; in series [3] (setting [10]), 94%; in series [3] (setting [11]), 123%; in series [4] (low attachment U-bottom plate), 304%. Also, the viability at 10 µM in series [4] (setting [9]) was determined as 268%. For the same molecule, the “number … relative value to control (100%)” value in series [1] (setting [6]) was “⊙”. The viability at 1 µM in series [3] (setting [10]) is 99%; in series [3] (setting [11]) it was 106%. In addition, the viability at 20 µM in series [3] (setting [10]) is 92%; in series [3] (setting [11]), 141%. Also, the “cell proliferation promoting effect (in words)” value is on record as “a favorable cell proliferation promoting effect was not observed” in series [3] (setting [12]) and “exhibited cell proliferation promoting effect at a wide concentration range” in series [3] (setting [13]). The “proliferation activity (in words)” value in series [4] is reported as “promoted proliferation activity in human umbilical vein endothelial cells”.

The values above are taken from patent US20200165194A1, “ADDITIVE COMPOSITION FOR CULTURE MEDIUM, ADDITIVE COMPOUND FOR CULTURE MEDIUM, AND METHOD FOR CULTURE OF CELLS OR TISSUE USING SAME” (NISSAN CHEMICAL CORPORATION, priority 2017, published 2020).
